Results published in ChEMBL document CHEMBL3632483, “Synthesis and pharmacological evaluation of piperidine (piperazine)-substituted benzoxazole derivatives as multi-target antipsychotics” (Bioorg Med Chem Lett, 2015).
Activity calls are given as the source filed them. No cut-off for these calls is given here.

Columns and labels:
[1] = system: Mus musculus; assay: Neurotoxicity in Chinese Kun Ming mouse assessed as locomotor activity by measuring total distance traveled at 3 mg/kg, po administered 1 hr before test measured for 10 mins (reference value: 13263.8 +/- 8034.2 millimeter); format: toxicity, organism-based; details: in vivo
[2] = molecular target: Histamine H1 receptor (Cavia porcellus, UniProt P31389); assay: Displacement of [3H]mepyramine from histamine H1 receptor in guinea pig cerebellum homogenates after 60 mins by liquid scintillation counting
[3] = system: Mus musculus; assay: Neurotoxicity in Chinese Kun Ming mouse assessed as locomotor activity by measuring total distance traveled at 1 mg/kg, po administered 1 hr before test measured for 10 mins (reference value: 13263.8 +/- 8034.2 millimeter); format: toxicity, organism-based; details: in vivo
[4] = molecular target: T1, Adrenergic receptor alpha-2 (Rattus norvegicus, UniProt P22086+P19328+P22909); assay: Displacement of [3H]-rauwolscine from adrenergic alpha2 receptor in rat cerebral cortex homogenates after 60 mins by liquid scintillation counting; format: tissue-based
T1 sequence (P22086 whole entry): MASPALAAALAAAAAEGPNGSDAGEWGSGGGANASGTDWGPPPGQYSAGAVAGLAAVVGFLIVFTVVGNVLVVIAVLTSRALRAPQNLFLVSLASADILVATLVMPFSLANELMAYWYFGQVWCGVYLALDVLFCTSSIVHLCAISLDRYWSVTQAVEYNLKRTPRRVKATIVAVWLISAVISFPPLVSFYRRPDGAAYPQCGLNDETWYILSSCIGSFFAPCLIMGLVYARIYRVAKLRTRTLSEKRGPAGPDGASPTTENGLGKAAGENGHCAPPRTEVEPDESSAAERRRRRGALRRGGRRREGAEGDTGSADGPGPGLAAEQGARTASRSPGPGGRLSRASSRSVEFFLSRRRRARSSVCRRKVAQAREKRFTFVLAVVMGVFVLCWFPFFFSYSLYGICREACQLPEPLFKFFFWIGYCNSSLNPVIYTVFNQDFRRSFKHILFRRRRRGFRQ
T1 sequence (P19328 whole entry): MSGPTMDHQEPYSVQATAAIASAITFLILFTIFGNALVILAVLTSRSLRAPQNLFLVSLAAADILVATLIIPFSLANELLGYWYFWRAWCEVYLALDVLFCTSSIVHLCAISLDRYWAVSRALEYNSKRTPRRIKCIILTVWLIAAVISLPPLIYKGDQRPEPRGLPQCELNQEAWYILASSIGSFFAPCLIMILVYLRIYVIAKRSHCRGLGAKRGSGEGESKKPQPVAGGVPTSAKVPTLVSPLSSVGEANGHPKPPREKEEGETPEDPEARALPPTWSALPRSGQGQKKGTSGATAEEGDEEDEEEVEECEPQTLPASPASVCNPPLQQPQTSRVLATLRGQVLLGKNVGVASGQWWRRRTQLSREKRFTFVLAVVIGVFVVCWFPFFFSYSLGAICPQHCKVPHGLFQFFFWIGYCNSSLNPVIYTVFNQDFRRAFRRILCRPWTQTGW
T1 sequence (P22909 whole entry): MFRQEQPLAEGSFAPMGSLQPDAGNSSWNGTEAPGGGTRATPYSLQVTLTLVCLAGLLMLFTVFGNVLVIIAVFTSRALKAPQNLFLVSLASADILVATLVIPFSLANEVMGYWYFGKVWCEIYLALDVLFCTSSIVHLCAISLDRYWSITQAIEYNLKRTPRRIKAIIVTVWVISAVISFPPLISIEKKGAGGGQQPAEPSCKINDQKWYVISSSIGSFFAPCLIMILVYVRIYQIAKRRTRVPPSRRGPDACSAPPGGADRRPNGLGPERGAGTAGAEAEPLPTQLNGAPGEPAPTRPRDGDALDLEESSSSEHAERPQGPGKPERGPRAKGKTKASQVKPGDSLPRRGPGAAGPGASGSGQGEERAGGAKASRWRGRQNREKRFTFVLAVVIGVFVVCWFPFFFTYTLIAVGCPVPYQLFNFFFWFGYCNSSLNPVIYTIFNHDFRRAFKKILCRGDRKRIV

[5] = system: Mus musculus; assay: Antipsychotic activity in Chinese Kun Ming mouse assessed as inhibition of apomorphine-induced climbing behaviour at 1 mg/kg, po administered 30 mins before apomorphine challenge measured up to 30 mins; format: functional, organism-based
[6] = system: Mus musculus; assay: Neurotoxicity in Chinese Kun Ming mouse assessed as locomotor activity by measuring total distance traveled at 10 mg/kg, po administered 1 hr before test measured for 10 mins (reference value: 13263.8 +/- 8034.2 millimeter); format: toxicity, organism-based; details: in vivo
[7] = system: Mus musculus; assay: Toxicity in po dosed Chinese Kun Ming mouse assessed as induction of catalepsy by measuring immobility score of 30 seconds administered 30 mins before first assessment; format: organism-based; details: in vivo, 0.5 h
[8] = system: Mus musculus; assay: Antipsychotic activity in po dosed Chinese Kun Ming mouse assessed as inhibition of DOI-induced head twitch administered 60 mins before DOI challenge measured up to 15 mins; format: functional
[9] = system: Mus musculus; assay: Antipsychotic activity in po dosed Chinese Kun Ming mouse assessed as inhibition of apomorphine-induced climbing administered 30 mins before apomorphine challenge measured up to 30 mins; format: functional
[10] = system: Mus musculus; assay: Antipsychotic activity in Chinese Kun Ming mouse assessed as inhibition of apomorphine-induced reaching behaviour at 1 mg/kg, po administered 30 mins before apomorphine challenge measured up to 30 mins; format: functional, organism-based

Histamine H1 receptor, sequence (P31389 whole entry): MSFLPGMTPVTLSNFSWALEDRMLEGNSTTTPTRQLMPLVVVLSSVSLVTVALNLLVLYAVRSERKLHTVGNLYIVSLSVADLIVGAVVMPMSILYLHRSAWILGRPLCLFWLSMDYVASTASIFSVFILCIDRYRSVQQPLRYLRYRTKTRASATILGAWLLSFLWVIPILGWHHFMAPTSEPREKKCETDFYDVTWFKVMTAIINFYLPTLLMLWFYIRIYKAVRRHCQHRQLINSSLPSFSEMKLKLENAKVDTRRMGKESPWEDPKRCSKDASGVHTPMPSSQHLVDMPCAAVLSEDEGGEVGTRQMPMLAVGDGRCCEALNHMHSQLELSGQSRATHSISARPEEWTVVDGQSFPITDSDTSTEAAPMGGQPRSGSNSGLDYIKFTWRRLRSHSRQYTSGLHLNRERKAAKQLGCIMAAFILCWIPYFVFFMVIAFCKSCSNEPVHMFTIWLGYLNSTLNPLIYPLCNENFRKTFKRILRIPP

With `Fc1ccc2c(C3CCN(CCCOc4ccc(Cc5nc6ccccc6o5)cc4)CC3)noc2c1` the Activity [1] was 10447.5 mm, the Ki [2] was 3150 nM and the Activity [3] was 13046.7 mm. For the same molecule, the Ki [4] was 16.3 nM, the inhibition [5] was “Active” and the Activity [6] was 9492.4 mm. The ED50 [7] was 70.5 mg/kg, the ED50 [8] was 0.71 mg/kg and the inhibition [8] was “Dose-dependent effect”. For the same molecule, the ED50 [9] was 0.86 mg/kg and the inhibition [10] was “Active”.

`Fc1ccc2c(C3CCN(CCCOc4ccc(-c5nc6ccccc6o5)cc4)CC3)noc2c1` gave a Ki [4] of 153 nM.
